Series [1] is described as follows: Pharmacokinetics of βBA and AKBA via os in healthy volunteers, fasted and hyperlipidic meal (Sterk V et al. 2004). The format is in vivo, humans. An excerpt: Indeed, βBA has a concentration in the blood: • at least 6 times higher than AKBA both in the fasting condition and with a hyperlipidic meal; • increased by 6 times after hyperlipidic meal so that the plasma/os ratio passes from 0.09 to 0.55.

Series [2] is described as follows: Plasma and brain levels of βBA and AKBA via os in mice (Gerbeth K et al. 2013). The format is in vivo. An excerpt:
βBA appears not to undergo blood-brain barrier. According to the data of Gerbeth K et al. 2013, brain levels of AKBA were very low, resulting 0.4 per AKBA in the brain/plasma ratio (but 0.81 according to Weber C C et al. 2006). In contrast, the § BA concentration in the brain was even higher than that found in the blood with 32% increase (See Table 1).

Series [3] concerns mice treated with Aβ icv. Kind of series: Splash test in SHAM mice and mice treated with Aβ icv (FIG. 4). The format is in vivo. The settings on record: after 7 days, HA4 200 μg, βCP 50 μg, βBA 100 μg, FE 50 μg sublingually. The procedure:
(§1) The Aβ1-42, obtained from Tocris (Bristol, UK), was dissolved in sterile double-distilled pyrogenic-free water, as vehicle, to obtain a final concentration 4 μM [Colaianna M et al. 2010]. Mice were anesthetized with a solution (0.85 in ml/kg, i.p.), containing ketamine (Sigma Aldrich, Milan, Italy, 100 mg/10 ml), xylazine (Sigma Aldrich, Milan, Italy, 100 mg/10 ml) and acepromazine (prequillant, ATI Azienda Terapeutica Veterinaria Srl, 10 mg/10 ml) dissolved in saline solution. […] At the time of dissection, the correct needle track was assessed. […]
Ten μl of the solution (or vehicle alone) were administered sublingually to mice. Brain βCP, FE e βBA were quantified in a separate subset of mice at 5, 15 and 30 min after their administration.
All behavioral experiments were conducted at 5 or 30 min after sublingual administrations of βBA or vehicle in mice treated with SHAM or AP. Based on the observed behavioral results, neurochemical and biochemical quantifications were performed 30 min after administration of βCP, FE, and βBA or vehicle in SHAM- or Aβ-treated mice.
Splash test. […] The test was videotaped and later an observer, blind to the trial, scored for latency to the first grooming event and duration of self-care behavior during the period of the test (5 min).

The subject of series [4] is serotonin (5-HT). Kind of series: Serotonin (5-HT) levels in mice treated with Aβ icv (FIG. 5a). In kind it is in vivo. As to the method: as §1
All behavioral experiments were conducted at 5 or 30 min after sublingual administrations of βBA or vehicle in mice treated with SHAM or AP. Based on the observed behavioral results, neurochemical and biochemical quantifications were performed 30 min after administration of βCP, FE, and βBA or vehicle in SHAM- or Aβ-treated mice. […]
5-HT, noradrenaline (NA), and KYN levels were measured in the PFC and HIPP of mice by HPLC coupled with an electrochemical detector (Ultimate ECD, Thermo Scientific Dionex, Milan, Italy) as already reported [Francavilla M et al. 2012, Morgese M G et al. 2016]. […] GLU concentrations were determined by HPLC coupled with fluorescence detection (emission length 460 nm; excitation length 340 nm), as previously published [Francavilla M et al. 2012]. […]

The conditions of series [5]: healthy volunteers, via os, cited from earlier work.

Structures are written as SMILES. Where two headings read alike, the source gives them in different places.

Consider `C[C@H]1[C@H](C)CC[C@]2(C)CC[C@]3(C)C(=CC[C@@H]4[C@@]5(C)CC[C@@H](O)[C@](C)(C(=O)O)[C@@H]5CC[C@]43C)[C@H]12` [βBA, β-boswellic acid], for which the plasma/os ratio was determined as 0.55 in series [1] (after hyperlipidic meal) and 0.09 in series [1] (fasting condition). Besides, the “blood concentration of βBA relative to AKBA” value in series [1] (both fasting and hyperlipidic meal) is “at least 6 times”. Besides, the Δos/plasma in series [1] (healthy volunteers, fasted conditions) stood at 10.9 fasted; in series [1] (healthy volunteers, hyperlipidic fed conditions), 1.82 hyperlipidic; in series [2] it was 39. Also, the “increase in blood concentration / intestinal absorption induced by a hyperlipidic meal” value in series [1] (healthy volunteers, hyperlipidic meal vs fasted) came out at 6 times. The Δos/brain in series [2] amounted to 26. The compound further returned a Δplasma/brain in series [2] of 0.68. Also, the “increase of concentration in the brain over that in the blood” value in series [2] (Table 1) is 32%. Besides, in series [3], the “Splash test latency time (antidepressant effect)” value was “antidepressant effect”. Also, the “Serotonin (5-HT) levels” value in series [4] is reported as “progressively greater serotonergic activity”. Further, the “concentration in the plasma” value in series [5] (fasted conditions) was 188.2 fasted ng/g o ng/ml; in series [5] (hyperlipidic fed conditions), 1,120 hyperlipidic ng/g o ng/ml.

These data come from patent publication US20260115162A1, “COMPOSITION OR ASSOCIATION OF COMPOUNDS PREFERABLY FOR USE IN THE TREATMENT OF NERVOUS DISEASES IN PARTICULAR NEURODEGENERATIVE DISEASES, METHOD FOR THE PREPARATION OF SUCH COMPOSITION OR ASSOCIATION OF COMPOUNDS AND USES THEREOF” (PHARMACEUTICA SAN MARCO S.R.L., priority 2022, published 2026).
